Results taken from ChEMBL document CHEMBL3217427, “Identification of 3-aminothieno[2,3-b]pyridine-2-carboxamides and 4-aminobenzothieno[3,2-d]pyrimidines as LIMK1 inhibitors” (Medchemcomm, 2011).

biological target: T1, LIM domain kinase 1 (Homo sapiens, UniProt P53667); test: Inhibition of LIMK1 (unknown origin) using cofilin-2 as substrate at 30 uM after 60 mins by Kinase-Glo assay relative to control
Target sequence in this assay (P53667 whole entry, looked up, the tested form may be a part): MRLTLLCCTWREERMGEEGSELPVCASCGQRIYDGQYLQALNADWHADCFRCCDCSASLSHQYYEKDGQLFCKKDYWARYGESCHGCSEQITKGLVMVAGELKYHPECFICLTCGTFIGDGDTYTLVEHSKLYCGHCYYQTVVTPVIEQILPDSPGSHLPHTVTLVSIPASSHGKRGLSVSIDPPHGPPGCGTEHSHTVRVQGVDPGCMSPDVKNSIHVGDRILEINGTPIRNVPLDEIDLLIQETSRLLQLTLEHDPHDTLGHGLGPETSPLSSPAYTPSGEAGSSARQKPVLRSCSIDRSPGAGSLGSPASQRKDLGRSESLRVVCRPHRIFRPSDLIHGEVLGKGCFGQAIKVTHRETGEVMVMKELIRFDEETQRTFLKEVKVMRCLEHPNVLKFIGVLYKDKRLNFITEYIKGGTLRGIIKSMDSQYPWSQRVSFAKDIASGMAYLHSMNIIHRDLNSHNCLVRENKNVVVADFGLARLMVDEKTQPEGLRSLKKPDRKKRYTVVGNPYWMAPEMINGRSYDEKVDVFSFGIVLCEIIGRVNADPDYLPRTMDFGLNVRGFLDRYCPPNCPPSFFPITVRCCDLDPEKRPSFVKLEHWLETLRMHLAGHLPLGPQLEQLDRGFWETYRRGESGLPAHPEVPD

| Structure (SMILES) | inhibition |
| --- | --- |
| Nc1c(C(=O)N2CCOCC2)sc2ncccc12 | 0% |
| NC(=O)c1sc2ncccc2c1N | 40% |
| Nc1c(C(=O)NC2CCCCC2)sc2ncccc12 | 2% |
| Nc1c(C(=O)Nc2ccccc2)sc2nccc(Nc3ccccc3)c12 | 0% |
| NC(=O)c1sc2nc3c(c(-c4cccs4)c2c1N)CCC3 | 50% |
| Nc1c(C(=O)Nc2ccccc2)sc2ncccc12 | 15% |
| NC(=O)c1sc2nccc(Nc3ccccc3)c2c1N | 98% |
| Cc1ccnc2sc(C(N)=O)c(N)c12 | 79% |
| CN(C)c1ccnc2sc(C(N)=O)c(N)c12 | 67% |
| NC(=O)c1sc2ncc3c(c2c1N)CCCC3 | 16% |

biological target: T1, LIM domain kinase 1; test: Inhibition of LIMK1 (unknown origin) using cofilin-2 as substrate after 60 mins by Kinase-Glo assay
Target sequence in this assay (P53667 whole entry, the tested form may be a part): as the sequence (P53667 whole entry, looked up, the tested form may be a part) above

| Structure (SMILES) | IC50 |
| --- | --- |
| Nc1c(C(=O)O)sc2ccccc12 | > 100 µM |
| NC(=O)c1sc2nc(-c3ccc4c(c3)OCCO4)cc(C(F)(F)F)c2c1N | 1.3 µM |
| NC(=O)c1sc2nc(-c3ccccc3)cc(-c3ccco3)c2c1N | 2 µM |
| CNC(=O)c1sc2ncccc2c1N | > 100 µM |
| CNc1c(C(N)=O)sc2ccccc12 | 34 µM |
| Nc1ncnc2c1sc1nc(-c3ccccc3)ccc12 | 0.7 µM |
| Cc1cc(-c2ccc(Cl)cc2)c2c(N)c(C(N)=O)sc2n1 | 37 µM |
| Cc1ccc2c(N)c(C(N)=O)sc2n1 | 56 µM |
| NC(=O)c1sc2nc(-c3ccccc3)ccc2c1N | 3 µM |
| NC(=O)c1cc2ccccc2s1 | > 100 µM |
| Cc1cc(C)c2c(N)c(C(N)=O)sc2n1 | 9 µM |
| NNC(=O)c1sc2ncccc2c1N | > 100 µM |
| NC(=O)c1sc2nc(Cc3ccccc3)cc(C(F)(F)F)c2c1N | 30 µM |
| NC(=O)c1sc2ccccc2c1O | > 100 µM |
| Nc1ncnc2c1sc1c(-c3ccccc3)cccc12 | 6.1 µM |
| Nc1c(C(=O)O)sc2ncccc12 | > 100 µM |
| Cc1nc(N)c2sc3ncccc3c2n1 | 43 µM |

| Structure (SMILES) | IC50 |
| --- | --- |
| Nc1ncnc2c1sc1nccnc12 | > 100 µM |
| Nc1ncnc2c1sc1ccc(-c3ccccc3)cc12 | 5.7 µM |
| CCOC(=O)c1sc2ccccc2c1N | > 100 µM |
| Nc1ncnc2c1oc1ccccc12 | 15 µM |
| NC(=O)c1oc2ccccc2c1N | > 100 µM |
| CN(C)C(=O)c1sc2ncccc2c1N | > 100 µM |
| NC(=O)c1sc2nc(-c3ccccc3)c3c(c2c1N)CCCC3 | 2.8 µM |
| Cc1ccc(-c2cc(C(F)(F)F)c3c(N)c(C(N)=O)sc3n2)o1 | 41 µM |
| Nc1ncnc2c1[nH]c1ccccc12 | 4 µM |
| NC(=O)c1sc2cccnc2c1N | 92 µM |
| NC(=O)c1sc2nc(-c3cccnc3)ccc2c1N | 7.1 µM |
| NC(=O)c1sc2nc(-c3cccs3)cc(C(F)(F)F)c2c1N | 1.6 µM |
| Nc1nc(-c2ccccc2)nc2c1sc1ncccc12 | > 50 µM |
| Cc1ccnc2sc(C(N)=O)c(N)c12 | 11 µM |
| COc1ccc(-c2cc(-c3ccccc3)nc3sc(C(N)=O)c(N)c23)cc1 | 44 µM |
| Nc1ncnc2c1sc1cccnc12 | 43 µM |
| Nc1ncnc2c1sc1cccc(-c3ccccc3)c12 | 5.5 µM |
